Reference: ChEMBL document CHEMBL4393679, “Structure-Guided Drug Design of 6-Substituted Adenosine Analogues as Potent Inhibitors of Mycobacterium tuberculosis Adenosine Kinase” (J Med Chem, 2019)
Activity calls are given as the source filed them. The calls are words filed in the database; no cut-off is given here.

Key:
[1] = biological target: Adenosine kinase (Mycobacterium tuberculosis (strain ATCC 25618 / H37Rv)) (UniProt P9WID5); assay: Inhibition of wild-type N-terminal TEV cleavage site-fused/His-tagged Mycobacterium tuberculosis H37Rv adenosine kinase expressed in Escherichia coli BL21 (DE3) at 12.5 uM using adenosine as substrate in presence of ATP and PEP by pyruvate kinase-lactate dehydrogenase coupled UV-vis spectrophotometric method relative to control
[2] = biological target: Adenosine kinase (Mycobacterium tuberculosis (strain ATCC 25618 / H37Rv)) (UniProt P9WID5); assay: Competitive-inhibition of wild-type N-terminal TEV cleavage site-fused/His-tagged Mycobacterium tuberculosis H37Rv adenosine kinase expressed in Escherichia coli BL21 (DE3) using varying levels of adenosine as substrate in presence of ATP and PEP by pyruvate kinase-lactate dehydrogenase-coupled UV-vis spectrophotometric based Cheng-Prusoff equation analysis
[3] = Toxicity in ND4 Swiss Webster mouse assessed as change in body weight at 50 to 200 mg/kg, po administered once daily via gavage for 3 days measured twice daily during compound dosing; type: organism-based; conditions: in vivo, 72 h
[4] = Toxicity in ND4 Swiss Webster mouse at 50 to 200 mg/kg, po administered once daily via gavage for 3 days measured twice daily during compound dosing; type: organism-based; conditions: in vivo, 72 h
[5] = Toxicity in ND4 Swiss Webster mouse at 10 mg/kg, po administered as single dose via gavage; type: organism-based; conditions: in vivo

Chain of Adenosine kinase (Mycobacterium tuberculosis (strain ATCC 25618 / H37Rv)) (P9WID5 2-324 limits assumed): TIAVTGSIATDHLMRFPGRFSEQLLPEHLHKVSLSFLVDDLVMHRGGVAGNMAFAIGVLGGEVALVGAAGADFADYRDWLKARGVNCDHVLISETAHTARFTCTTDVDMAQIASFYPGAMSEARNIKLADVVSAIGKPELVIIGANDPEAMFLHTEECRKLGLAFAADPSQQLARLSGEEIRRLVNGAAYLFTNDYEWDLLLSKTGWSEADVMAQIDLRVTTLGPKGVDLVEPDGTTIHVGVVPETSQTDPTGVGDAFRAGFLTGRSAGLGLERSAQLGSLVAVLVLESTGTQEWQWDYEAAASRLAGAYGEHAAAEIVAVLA

| Compound | inhibition [1] [%] | inhibition [2] | Activity [3] | Activity [4] | Activity [5] |
| --- | --- | --- | --- | --- | --- |
| Cc1ccc(S(=O)(=O)NC[C@H]2O[C@@H](n3cnc4c(N5CCN(c6ccc(C(F)(F)F)cc6)CC5)ncnc43)[C@H](O)[C@@H]2O)cc1 | 53 | – | – | – | – |
| OC[C@H]1O[C@@H](n2cnc3c(N4CCN(c5ccc(-c6ccccc6)cc5)CC4)ncnc32)[C@H](O)[C@@H]1O | – | Active | Non-Toxic | Non-Toxic | Non-Toxic |
